Results reported in patent publication US20050176804A1, “Method and material for free radical scavenging in human tissue” (priority 2003, published 2005).

Assays:
[1] = tested on: cultured human skin fibroblasts; experiment: RNS suppression, total nitrate plus nitrite (Nox) generation, Greiss assay; type: cell-based; settings: 60 μg/ml
Experimental: In addition to ROS activity, indoleacetyl phenylalanine was also tested against radical nitrogen species (RNS) in cultured human skin fibroblasts. To estimate suppression of RNS, total nitrate plus nitrite (Nox) generation was measured using the Greiss assay method. At a concentration of 60 μg/ml, indoleacetyl phenylalanine decreased RNS generation by 33% as compared to an untreated control.

fibroblast COX-2 enzymes = target: T1, fibroblast COX-2 enzymes (Homo sapiens, UniProt P35354); experiment: Inhibition of fibroblast COX-2 enzymes; type: cell-based
T1 construct: endogenous in cells
T1 sequence (P35354 18-604): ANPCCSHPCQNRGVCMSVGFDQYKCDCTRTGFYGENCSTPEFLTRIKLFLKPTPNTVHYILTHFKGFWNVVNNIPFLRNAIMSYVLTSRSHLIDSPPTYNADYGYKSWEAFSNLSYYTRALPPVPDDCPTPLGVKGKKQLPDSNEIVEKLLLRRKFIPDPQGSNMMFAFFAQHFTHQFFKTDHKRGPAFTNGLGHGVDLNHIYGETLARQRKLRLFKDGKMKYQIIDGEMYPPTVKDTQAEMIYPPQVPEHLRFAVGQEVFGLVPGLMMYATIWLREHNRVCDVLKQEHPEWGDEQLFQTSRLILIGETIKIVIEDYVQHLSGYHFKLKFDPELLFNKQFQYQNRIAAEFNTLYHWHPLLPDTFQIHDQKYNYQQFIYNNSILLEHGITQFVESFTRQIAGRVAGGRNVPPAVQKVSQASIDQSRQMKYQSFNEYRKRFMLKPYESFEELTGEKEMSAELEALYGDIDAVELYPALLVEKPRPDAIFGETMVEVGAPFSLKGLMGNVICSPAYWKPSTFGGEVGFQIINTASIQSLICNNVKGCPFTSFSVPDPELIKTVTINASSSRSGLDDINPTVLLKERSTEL

catalase = experiment: Catalase gene expression by Western blotting; type: cell-based; settings: 15 and 30 μM, particularly increased at 30 μM; human skin fibroblasts
Experimental: (§1) The antioxidant effects of indoleacetyl phenylalanine was also tested with respect to the production of antioxidant enzymes by means of differential gene expression in human skin fibroblasts. The experiment was conducted with respect to gene expression related to two major defense enzymes, Superoxide Dismutase (SOD) and catalase. […] Gene expression for both enzymes was stimulated at indoleacetyl phenylalanine concentrations of 15 and 30 μM.

[2] = tested on: nitric oxide synthase (iNOS); experiment: iNOS suppression, native and activated states; type: cell-based; settings: 3-12 μM
Description: Following previous leads on indoleacetyl phenylalanine's finding as a potent anti-free radical substance, additional experimental evidence was sought to strengthen the earlier findings. Focus at this time was placed on nitric oxide synthase (iNOS), which is the key enzyme for generating a destructive oxidant, nitric oxide. Since this enzyme existed in native and activated states, it was pertinent to check both the enzyme activities to ascertain the inhibitory action of indoleacetyl phenylalanine.

fibroblasts = experiment: Cell proliferation / cell viability, MTT method; type: cell-based
Experimental: Furthermore, to investigate the effects of indole derivatives on cell proliferation as a biological marker, cell viability was assayed using the MTT method.

[3] = tested on: human skin fibroblast cultures; experiment: Total ROS generation in skin fibroblasts, DCFDA fluorescent probe; type: cell-based
Experimental: (§2) The anti-oxidative action of indoleacetyl phenylalanine was tested against reactive oxygen species (ROS) using human skin fibroblast cultures. Total ROS generation in skin fibroblasts was measured using the fluorescent dye dichlorofluorescin diacetate (DCFDA) as a probe. DCFDA readily diffuses through cell membranes and is enzymatically hydrolyzed by intracellular esterase to become non-fluorescent dichlorofluorescin (DCFH), which is then oxidized by reactive species (oxidants) to highly fluorescent […] (DCF). Increased antioxidant activity within a cell is marked by a reduction in the fluorescent DCF.
(§3) Positive results were obtained with fibroblasts incubated in both serum-containing and serum-free media (serum proteins, e.g., albumin, can act as antioxidants and skew test results).

skin fibroblasts [4] = experiment: Cell viability of skin fibroblasts during ROS test; type: cell-based, human
Experimental: as §3

Cu/ZnSOD = Cu/ZnSOD gene expression by Western blotting; type: cell-based; settings: 15 and 30 μM; human skin fibroblasts
Experimental: as §1

skin fibroblasts [5] = experiment: t-butyl hydroperoxide (t-BHP) induced ROS activity; type: cell-based, human; settings: serum-free media
Experimental: as §2

SMILES: O=C(Cc1c[nH]c2ccccc12)N[C@@H](Cc1ccccc1)C(=O)O [indoleacetyl phenylalanine]
- decrease of RNS generation compared to untreated control [1]: 33%
- anti-inflammatory effect, COX-2 inhibition (fibroblast COX-2 enzymes): inhibition of fibroblast COX-2 enzymes
- gene expression for production of catalase (protein amount) (catalase): increased gene expression
- suppression of iNOS, native state [2]: suppressed iNOS
- suppression of iNOS gene expression activity, activated state ([2]; activated by 5 μM t-BHP): able to suppress iNOS gene expression activity
- stimulation of cell proliferation compared to untreated controls (fibroblasts; MTT method): 30%
- lowest concentration giving dose-dependent fibroblast proliferation (fibroblasts; four-day incubation period): 2 µM
- antioxidant activity toward ROS generation ([3]; 10% serum media, 15, 30, and 60 μM): significant antioxidant activity
- antioxidant activity toward ROS generation ([3]; serum-free media, 7.5, 15, and 30 μM): exhibited antioxidant activity
- effect on cell viability (skin fibroblasts [4]): without affecting cell viability
- gene expression for production of Cu/ZnSOD (protein amount) (Cu/ZnSOD): increased gene expression
- antioxidant activity against t-BHP induced ROS activity (skin fibroblasts [5]): showed antioxidant activity
